Patent publication US9920339B2, “Methods, reagents and cells for biosynthesizing compounds” (INVISTA North America S.á r.l., priority 2014, dated 2018)

Key:
Type in all cases: biochemical
[1] = target: T1, Escherichia coli pimeloyl-[acp] methyl ester methylesterase (SEQ ID NO: 1) (Escherichia coli, UniProt P13001); test: pimeloyl-[acp] methyl ester methylesterase enzyme activity assay, glutaryl-CoA formation by LC-MS; conditions: SEQ ID NO 1, 10 μM enzyme; 5 mM glutaryl-CoA methyl ester, 25 mM Tris.HCl pH 7.0, 30° C., 1 h
T1 construct: His-tag (C); made in house; host or cells: E. coli BL21[DE3], pET28b+
T1 sequence (P13001 whole entry): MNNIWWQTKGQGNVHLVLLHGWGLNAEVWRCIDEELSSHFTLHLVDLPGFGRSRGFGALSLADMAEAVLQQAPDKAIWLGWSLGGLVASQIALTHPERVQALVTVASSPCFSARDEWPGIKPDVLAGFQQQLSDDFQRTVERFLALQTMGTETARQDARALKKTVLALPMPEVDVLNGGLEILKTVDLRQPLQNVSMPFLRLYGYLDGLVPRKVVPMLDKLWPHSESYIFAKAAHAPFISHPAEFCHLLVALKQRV
Procedure: A sequence encoding an C-terminal His-tag was added to the gene from Escherichia coli encoding the pimeloyl-[acp] methyl ester methylesterase of SEQ ID NO: 1 (see FIG. 10) such that C-terminal HIS tagged pimeloyl-[acp] methyl ester methylesterase could be produced. The resulting modified gene was cloned into a pET28b+ expression vector under control of the T7 promoter and the expression vector was transformed into a BL21[DE3] E. coli host. The resulting recombinant E. coli strain was cultivated at 37° C. in a 500 mL shake flask culture containing 100 mL LB media and antibiotic selection pressure, with shaking at 230 rpm. Each culture was induced overnight at 18° C. using 0.3 mM IPTG.
The pellet from each induced shake flask culture was harvested via centrifugation. Each pellet was resuspended and lysed via sonication. The cell debris was separated from the supernatant via centrifugation. The pimeloyl-[acp] methyl ester methylesterase was purified from the supernatant using Ni-affinity chromatography, buffer exchanged and concentrated into 20 mM HEPES buffer (pH=7.5) via ultrafiltration and stored at 4° C.
Enzyme activity assays converting glutaryl-CoA methyl ester to glutaryl-CoA were performed in triplicate in a buffer composed of a final concentration of 25 mM Tris.HCl buffer (pH=7.0) and 5 [mM] glutaryl-CoA methyl ester. […] The formation of glutaryl-CoA was quantified via LC-MS.

[2] = target: T2, Mycobacterium marinum carboxylate reductase (SEQ ID NO: 2), enhanced by the gene product of sfp (Mycobacterium marinum, UniProt B2HN69); test: carboxylate reductase enzyme activity assay, NADPH consumption at 340 nm; conditions: SEQ ID NO 2 with sfp; 2 mM substrate, 10 mM MgCl2, 1 mM ATP, 1 mM NADPH, pH 7.5, room temperature, 20 min; absorbance at 340 nm
T2 construct: His-tag (N); made in house; host or cells: E. coli BL21[DE3], pET Duet
T2 sequence (B2HN69 whole entry): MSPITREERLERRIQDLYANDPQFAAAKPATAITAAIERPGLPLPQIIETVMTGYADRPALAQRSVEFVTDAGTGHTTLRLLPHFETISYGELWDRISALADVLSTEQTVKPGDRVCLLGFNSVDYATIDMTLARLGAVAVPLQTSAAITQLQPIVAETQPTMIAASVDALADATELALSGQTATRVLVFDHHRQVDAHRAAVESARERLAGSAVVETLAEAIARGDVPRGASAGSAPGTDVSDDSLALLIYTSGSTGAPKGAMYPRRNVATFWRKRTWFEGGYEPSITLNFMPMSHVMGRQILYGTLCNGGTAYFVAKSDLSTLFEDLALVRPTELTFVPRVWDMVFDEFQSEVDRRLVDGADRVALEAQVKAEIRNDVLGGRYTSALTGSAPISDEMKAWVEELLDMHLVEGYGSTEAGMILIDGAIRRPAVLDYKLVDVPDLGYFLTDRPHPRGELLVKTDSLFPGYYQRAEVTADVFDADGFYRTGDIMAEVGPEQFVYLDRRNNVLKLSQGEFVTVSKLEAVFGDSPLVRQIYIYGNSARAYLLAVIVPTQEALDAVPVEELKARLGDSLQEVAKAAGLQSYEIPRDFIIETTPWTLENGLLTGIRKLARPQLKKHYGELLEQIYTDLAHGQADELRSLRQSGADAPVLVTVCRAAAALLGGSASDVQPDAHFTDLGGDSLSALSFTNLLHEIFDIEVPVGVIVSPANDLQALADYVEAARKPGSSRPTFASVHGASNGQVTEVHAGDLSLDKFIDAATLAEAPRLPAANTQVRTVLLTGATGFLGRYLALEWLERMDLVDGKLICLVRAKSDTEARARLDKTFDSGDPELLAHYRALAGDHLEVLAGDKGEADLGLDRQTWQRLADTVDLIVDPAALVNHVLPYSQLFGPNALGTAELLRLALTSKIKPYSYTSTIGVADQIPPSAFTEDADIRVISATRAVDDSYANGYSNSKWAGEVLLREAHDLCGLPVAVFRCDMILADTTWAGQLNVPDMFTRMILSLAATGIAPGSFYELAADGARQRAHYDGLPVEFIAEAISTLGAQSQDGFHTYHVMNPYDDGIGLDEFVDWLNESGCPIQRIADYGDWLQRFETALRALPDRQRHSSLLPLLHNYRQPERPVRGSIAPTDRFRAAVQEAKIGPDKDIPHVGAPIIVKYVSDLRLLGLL
Procedure: (§1) A nucleotide sequence encoding a His-tag was added to the genes from Mycobacterium marinum, Mycobacterium smegmatis, Segniliparus rugosus, Mycobacterium massiliense, and Segniliparus rotundus that encode the carboxylate reductases of SEQ ID NOs: 2-4, 6 and 7, respectively (GenBank Accession Nos. ACC40567.1, ABK71854.1, EFV11917.1, EIV11143.1, and ADG98140.1, respectively) (see FIG. 10) such that N-terminal HIS tagged carboxylate reductases could be produced. Each of the modified genes was cloned into a pET Duet expression vector alongside a sfp gene encoding a His-tagged phosphopantetheine transferase from Bacillus subtilis, both under control of the T7 promoter. Each expression vector was transformed into a BL21[DE3] E. coli host along with the expression vectors from Example 3. Each resulting recombinant E. coli strain was cultivated at 37° C. in a 250 mL shake flask culture containing 50 mL LB media and antibiotic selection pressure, with shaking at 230 rpm. Each culture was induced overnight at 37° C. using an auto-induction media.
(§2) The pellet from each induced shake flask culture was harvested via centrifugation. Each pellet was resuspended and lysed via sonication. The cell debris was separated from the supernatant via centrifugation. The carboxylate reductases and phosphopantetheine transferase were purified from the supernatant using Ni-affinity chromatography, diluted 10-fold into 50 mM HEPES buffer (pH=7.5) and concentrated via ultrafiltration.
(§3) Enzyme activity (i.e., 5-hydroxypentanoate to 5-hydroxypentanal) assays were performed in triplicate in a buffer composed of a final concentration of 50 mM HEPES buffer (pH=7.5), 2 mM 5-hydroxypentanal, 10 mM MgCl2, 1 mM ATP, and 1 mM NADPH. Each enzyme activity assay reaction was initiated by adding purified carboxylate reductase and phosphopantetheine transferase or the empty vector control to the assay buffer containing the 5-hydroxypentanoate and then incubated at room temperature for 20 min. The consumption of NADPH was monitored by absorbance at 340 nm.
(§4) The N-terminal His-tagged carboxylate reductase of SEQ ID NO 2-4 and 7 (see Example 2 and FIG. 10) was assayed using glutarate methyl ester as substrate. The enzyme activity assay was performed in triplicate in a buffer composed of a final concentration of 50 mM HEPES buffer (pH=7.5), 2 mM glutarate methyl ester, 10 mM MgCl2, 1 mM ATP and 1 mM NADPH. The enzyme activity assay reaction was initiated by adding purified carboxylate reductase and phosphopantetheine transferase or the empty vector control to the assay buffer containing the glutarate semialdehyde and then incubated at room temperature for 20 min. The consumption of NADPH was monitored by absorbance at 340 nm.

[3] = system: Mycobacterium smegmatis carboxylate reductase (SEQ ID NO: 3), enhanced by the gene product of sfp; test: as above; conditions: SEQ ID NO 3 with sfp; 2 mM substrate, 10 mM MgCl2, 1 mM ATP, 1 mM NADPH, pH 7.5, room temperature, 20 min; absorbance at 340 nm
Procedure: as §1, §2, §3, §4

[4] = system: Segniliparus rugosus carboxylate reductase (SEQ ID NO: 4), enhanced by the gene product of sfp; test: as above; conditions: SEQ ID NO 4 with sfp; 2 mM substrate, 10 mM MgCl2, 1 mM ATP, 1 mM NADPH, pH 7.5, room temperature, 20 min; absorbance at 340 nm
Procedure: as §1, §2, §3, §4

[5] = system: Mycobacterium massiliense carboxylate reductase (SEQ ID NO: 6), enhanced by the gene product of sfp; test: as above; conditions: SEQ ID NO 6 with sfp; 2 mM substrate, 10 mM MgCl2, 1 mM ATP, 1 mM NADPH, pH 7.5, room temperature, 20 min; absorbance at 340 nm
Procedure: as §1, with “media. […]” for “media.”
(§5) Enzyme activity (i.e., 5-hydroxypentanoate to 5-hydroxypentanal) assays were performed in triplicate in a buffer composed of a final concentration of 50 mM HEPES buffer (pH=7.5), 2 mM 5-hydroxypentanal, 10 mM MgCl2, 1 mM ATP, and 1 mM NADPH. […] The consumption of NADPH was monitored by absorbance at 340 nm.

[6] = system: Segniliparus rotundus carboxylate reductase (SEQ ID NO: 7), enhanced by the gene product of sfp; test: as above; conditions: SEQ ID NO 7 with sfp; 2 mM substrate, 10 mM MgCl2, 1 mM ATP, 1 mM NADPH, pH 7.5, room temperature, 20 min; absorbance at 340 nm
Procedure: as §1
The pellet from each induced shake flask culture was harvested via centrifugation. Each pellet was resuspended and lysed via sonication. The cell debris was separated from the supernatant via centrifugation. […]
as §5
The N-terminal His-tagged carboxylate reductase of SEQ ID NO 7 (see Example 2 and FIG. 10) was assayed using glutarate semialdehyde as substrate. […] The consumption of NADPH was monitored by absorbance at 340 nm.
The N-terminal His-tagged carboxylate reductase of SEQ ID NO 2-4 and 7 (see Example 2 and FIG. 10) was assayed using glutarate methyl ester as substrate. […] The consumption of NADPH was monitored by absorbance at 340 nm.

COC(=O)CCCC(=O)SCCNC(=O)CCNC(=O)C(O)C(C)(C)COP(=O)(O)OP(=O)(O)OCC1OC(n2cnc3c(N)ncnc32)C(O)C1OP(=O)(O)O (stereo not drawn) [glutaryl-CoA methyl ester]
accepted: accepted as substrate, glutaryl-CoA synthesized as reaction product as confirmed via LC-MS [1]

O=C(O)CCCCO [5-hydroxypentanoate]
accepted: accepted as substrate as confirmed against the empty vector control [2] | accepted as substrate as confirmed against the empty vector control [3] | accepted as substrate as confirmed against the empty vector control [4] | accepted as substrate as confirmed against the empty vector control [5] | accepted as substrate as confirmed against the empty vector control [6]
